Results: patent US20080114047A1 (priority 2003, published 2008)
Where a name gives a salt, the structure may show the parent alone.

system: not listed separately; assay: in vitro; conditions: not given

SMILES	IC50 [µM]
N=C(NO)c1ccc(OCCCCCOc2ccc(-c3cc4cc(C(=N)NO)ccc4o3)cc2)cc1 [Compound 183, 2-(4-(5-(4-(N-Hydroxycarbamimidoyl)phenoxy)pentyloxy)phenyl)-N-hydroxybenzofuran-5-carboxamidine]	8.28

system: not given; assay: not given; conditions: not given

SMILES	melting point
Cl.Cl.N=C(N)c1ccc(OCCCOc2ccc(-c3cc4ccc(C(=N)N)cc4o3)cc2)cc1	294 to 295 °C
N=C(NO)c1cccc(-c2cc3ccc(C(=N)NO)cc3o2)c1 (as salt: HCl) [Compound 180, 2-(3-(N-Hydroxycarbamimidoyl)phenyl)-N-hydroxybenzofuran-6-carboxamidine]	210 °C (dec.)
N=C(NO)c1ccc(-c2cc3ccc(C(=N)NO)cc3o2)cc1 (as salt: HCl) [Compound 181, 2-(4-(N-Hydroxycarbamimidoyl)phenyl)-N-hydroxybenzofuran-6-carboxamidine]	210 °C (dec.)
N=C(NO)c1ccc(OCCCOc2ccc(-c3cc4cc(C(=N)NO)ccc4o3)cc2)cc1 (as salt: HCl) [Compound 182, 2-(4-(3-(4-(N-Hydroxycarbamimidoyl)phenoxy)propoxy)phenyl)-N-hydroxybenzofuran-5-carboxamidine]	204 °C (dec.)
N=C(NO)c1ccc(OCCCCCOc2ccc(-c3cc4cc(C(=N)NO)ccc4o3)cc2)cc1 (as salt: HCl) [Compound 183, 2-(4-(5-(4-(N-Hydroxycarbamimidoyl)phenoxy)pentyloxy)phenyl)-N-hydroxybenzofuran-5-carboxamidine]	202 °C (dec.)
N=C(NO)c1ccc2cc(CCCCCc3cc4ccc(C(=N)NO)cc4o3)oc2c1 (as salt: HCl) [Compound 184, 2-(5-(6-(N-Hydroxycarbamimidoyl)benzofuran-2-yl)pentyl)-N-hydroxybenzofuran-6-carboxamidine]	220 °C (dec.)
N=C(NO)c1ccc2oc(CCCc3cc4cc(C(=N)NO)ccc4o3)cc2c1 (as salt: HCl) [Compound 185, 2-(3-(5-(N-Hydroxycarbamimidoyl)benzofuran-2-yl)propyl)-N-hydroxybenzofuran-5-carboxamidine]	145 to 147 °C (dec.)
N=C(NO)c1ccc2oc(CCCCc3cc4cc(C(=N)NO)ccc4o3)cc2c1 (as salt: HCl) [Compound 186, 2-(4-(5-(N-Hydroxycarbamimidoyl)benzofuran-2-yl)butyl)-N-hydroxybenzofuran-5-carboxamidine]	231 °C (dec.)
CONC(=N)c1ccc2cc(CCCCCc3cc4ccc(C(=N)NOC)cc4o3)oc2c1 (as salt: HCl) [Compound 187, 2-(5-(6-(N-Methoxycarbamimidoyl)benzofuran-2-yl)pentyl)-N-methoxybenzofuran-6-carboxamidine]	230 to 231 °C (dec.)
CONC(=N)c1ccc2oc(CCCc3cc4cc(C(=N)NOC)ccc4o3)cc2c1 (as salt: HCl) [Compound 188, 2-(3-(5-(N-Methoxycarbamimidoyl)benzofuran-2-yl)propyl)-N-methoxybenzofuran-5-carboxamidine]	89 to 90 °C (dec.)
CONC(=N)c1ccc2oc(CCCCc3cc4cc(C(=N)NOC)ccc4o3)cc2c1 (as salt: HCl) [Compound 189, 2-(4-(5-(N-Methoxycarbamimidoyl)benzofuran-2-yl)butyl)-N-methoxybenzofuran-5-carboxamidine]	248 to 250 °C (dec.)
CONC(=N)c1ccc2oc(CCc3cc4cc(C(=N)NOC)ccc4o3)cc2c1 (as salt: HCl) [Compound 191, 2-(2-(5-(N-Methoxycarbamimidoyl)benzofuran-2-yl)ethyl)-N-methoxybenzofuran-5-carboxamidine]	245 to 246 °C (dec.)
N=C(NO)c1ccc2oc(CCCCCc3cc4cc(C(=N)NO)ccc4o3)cc2c1 (as salt: HCl) [Compound 192, 2-(5-(5-(N-Hydroxycarbamimidoyl)benzofuran-2-yl)pentyl)-N-hydroxybenzofuran-5-carboxamidine]	120 °C (dec.)
CONC(=N)c1ccc2oc(CCCCCc3cc4cc(C(=N)NOC)ccc4o3)cc2c1 (as salt: HCl) [Compound 193, 2-(5-(5-(N-Methoxycarbamimidoyl)benzofuran-2-yl)pentyl)-N-methoxybenzofuran-5-carboxamidine]	118 °C (dec.)
c1cc(OCCCCCCOc2ccc(C3=NCCN3)cc2)cc(-c2cc3cc(C4=NCCN4)ccc3o2)c1 (as salt: salt) [Compound 43, 2-(2-(3-(6-(4-(4,5-Dihydro-1H-imidazol-2-yl)phenoxy)hexyloxy)phenyl)benzofuran-5-yl)-4,5-dihydro-1H-imidazole]	178 to 182 °C
Cl.Cl.c1cc(C2=NCCN2)c2cc(Cc3cc4c(C5=NCCN5)cccc4o3)oc2c1 [Compound 3, Bis(4-(4,5-dihydro-1H-imidazol-2-yl)benzofuran-2-yl)methane dihydrochloride]	333 to 335 °C
Cl.Cl.N=C(N)c1ccc2oc(Cc3cc4cc(C(=N)N)ccc4o3)cc2c1 [Compound 4, 2-((5-Amidinobenzofuran-2-yl)methyl)benzofuran-5-carboxamidine dihydrochloride]	212 to 214 °C

SMILES	melting point
Cl.Cl.c1cc2oc(Cc3cc4cc(C5=NCCN5)ccc4o3)cc2cc1C1=NCCN1 [Compound 6, Bis(5-(4,5-dihydro-1H-imidazol-2-yl)benzofuran-2-yl)methane dihydrochloride]	233 to 235 °C
Cl.Cl.c1cc2cc(Cc3cc4ccc(C5=NCCN5)cc4o3)oc2cc1C1=NCCN1 [Compound 7, Bis(6-(4,5-dihydro-1H-imidazol-2-yl)benzofuran-2-yl)methane dihydrochloride]	341 to 343 °C
Cl.Cl.c1cc2oc(CCc3cc4cc(C5=NCCN5)ccc4o3)cc2cc1C1=NCCN1 [Compound 10, 4,5-Dihydro-2-(2-(2-(5-(4,5-dihydro-1H-imidazol-2-yl)benzofuran-2-yl)ethyl)benzofuran-5-yl)-1H-imidazole dihydrochloride]	366 °C (dec.)
Cl.Cl.N=C(N)c1ccc2cc(CCc3cc4ccc(C(=N)N)cc4o3)oc2c1 [Compound 11, 2-(2-(6-Amidinobenzofuran-2-yl)ethyl)benzofuran-6-carboxamidine dihydrochloride]	362 °C (dec.)
Cl.Cl.c1cc2cc(CCc3cc4ccc(C5=NCCN5)cc4o3)oc2cc1C1=NCCN1 [Compound 13, 4,5-dihydro-2-(2-(2-(6-(4,5-dihydro-1H-imidazol-2-yl)benzofuran-2-yl)ethyl)benzofuran-6-yl)-1H-imidazole dihydrochloride]	> 360 °C
Cl.Cl.N=C(N)c1ccc2oc(CCCc3cc4cc(C(=N)N)ccc4o3)cc2c1 [Compound 14, 2-(3-(5-Amidinobenzofuran-2-yl)propyl)benzofuran-5-carboxamidine dihydrochloride]	168 to 170 °C
Cl.Cl.c1cc2oc(CCCc3cc4cc(C5=NCCN5)ccc4o3)cc2cc1C1=NCCN1 [Compound 16, 4,5-Dihydro-2-(2-(3-(5-(4,5-dihydro-1H-imidazol-2-yl)benzofuran-2-yl)propyl)benzofuran-5-yl)-1H-imidazole dihydrochloride]	203 to 205 °C
Cl.Cl.N=C(N)c1ccc2cc(CCCc3cc4ccc(C(=N)N)cc4o3)oc2c1 [Compound 17, 2-(3-(6-Amidinobenzofuran-2-yl)propyl)benzofuran-6-carboxamidine dihydrochloride]	> 300 °C (dec.)
Cl.Cl.c1cc2cc(CCCc3cc4ccc(C5=NCCN5)cc4o3)oc2cc1C1=NCCN1 [Compound 19, 4,5-Dihydro-2-(2-(3-(6-(4,5-dihydro-1H-imidazol-2-yl)benzofuran-2-yl)propyl)benzofuran-6-yl)-1H-imidazole dihydrochloride]	> 300 °C (dec.)
Cl.Cl.N=C(N)c1ccc2oc(CCCCc3cc4cc(C(=N)N)ccc4o3)cc2c1 [Compound 20, 2-(4-(5-Amidinobenzofuran-2-yl)butyl)benzofuran-5-carboxamidine dihydrochloride]	325 to 327 °C (dec.)
Cl.Cl.c1cc2oc(CCCCc3cc4cc(C5=NCCN5)ccc4o3)cc2cc1C1=NCCN1 [Compound 22, 4,5-Dihydro-2-(2-(4-(5-(4,5-dihydro-1H-imidazol-2-yl)benzofuran-2-yl)butyl)benzofuran-5-yl)-1H-imidazole dihydrochloride]	323 to 324 °C (dec.)
Cl.Cl.N=C(N)c1ccc2cc(CCCCc3cc4ccc(C(=N)N)cc4o3)oc2c1 [Compound 23, 2-(4-(6-Amidinobenzofuran-2-yl)butyl)benzofuran-6-carboxamidine dihydrochloride]	328 to 330 °C (dec.)
Cl.Cl.c1cc2cc(CCCCc3cc4ccc(C5=NCCN5)cc4o3)oc2cc1C1=NCCN1 [Compound 25, 4,5-Dihydro-2-(2-(4-(6-(4,5-dihydro-1H-imidazol-2-yl)benzofuran-2-yl)butyl)benzofuran-6-yl)-1H-imidazole dihydrochloride]	343 to 345 °C (dec.)
Cl.Cl.c1cc2oc(CCCCCc3cc4cc(C5=NCCN5)ccc4o3)cc2cc1C1=NCCN1 [Compound 28, 4,5-Dihydro-2-(2-(5-(5-(4,5-dihydro-1H-imidazol-2-yl)benzofuran-2-yl)pentyl)benzofuran-5-yl)-1H-imidazole dihydrochloride]	155 to 157 °C
Cl.Cl.N=C(N)c1ccc2cc(CCCCCc3cc4ccc(C(=N)N)cc4o3)oc2c1 [Compound 29, 2-(5-(6-Amidinobenzofuran-2-yl)pentyl)benzofuran-6-carboxamidine dihydrochloride]	243 to 245 °C (dec.)
Cl.Cl.c1cc2cc(CCCCCc3cc4ccc(C5=NCCN5)cc4o3)oc2cc1C1=NCCN1 [Compound 31, 4,5-Dihydro-2-(2-(5-(6-(4,5-dihydro-1H-imidazol-2-yl)benzofuran-2-yl)pentyl)benzofuran-6-yl)-1H-imidazole dihydrochloride]	308 to 310 °C (dec.)

system: Trypanosoma brucei rhodesiense; assay: Anti-protozoan data: T.b.r. IC50; assay type: cell-based; conditions: Tables VI(a), VI(c), read-out: T.b.r. IC50

SMILES	IC50 [µM]
N=C(NO)c1ccc(OCCCCCOc2ccc(-c3cc4cc(C(=N)NO)ccc4o3)cc2)cc1 [Compound 183, 2-(4-(5-(4-(N-Hydroxycarbamimidoyl)phenoxy)pentyloxy)phenyl)-N-hydroxybenzofuran-5-carboxamidine]	1.55

system: Plasmodium falciparum; assay: Anti-protozoan data: P. falcip. IC50; assay type: cell-based; conditions: Tables VI(a), VI(c), read-out: P. falcip. IC50

SMILES	IC50 [µM]
N=C(NO)c1ccc(OCCCCCOc2ccc(-c3cc4cc(C(=N)NO)ccc4o3)cc2)cc1 [Compound 183, 2-(4-(5-(4-(N-Hydroxycarbamimidoyl)phenoxy)pentyloxy)phenyl)-N-hydroxybenzofuran-5-carboxamidine]	0.291
